{"source": "patent US20220288004A1", "about": "“TREATMENT AND PREVENTION OF AGING RELATED-DISEASE AND/OR AGING BY THE INHIBITION OF SPHINGOLIPIDS” (ECOLE POLYTECHNIQUE FEDERALE DE LAUSANNE (EPFL), priority 2019, published 2022)", "assay_type_in_all_cases": "in vivo, mouse", "key": {"[1]": {"test_system": "quadriceps muscle of aged C57Bl/6JRj mice", "test": "Quadriceps transcript profiling using RNA sequencing", "conditions": "aged myriocin vs DMSO treated mice", "description": "To identify biological pathways whose modulation could explain improved muscle function upon myriocin treatment, transcriptomes of quadriceps muscle of aged myriocin and DMSO treated mice using RNA sequencing were compared. Gene set enrichment analysis (GSEA) ranking transcripts based on their fold change were performed.\nQuadriceps transcript profiling using RNA sequencing. Quadriceps muscles were collected and snap-frozen in liquid nitrogen from C57Bl/6JRj mice undergoing intraperitoneal myriocin treatment for 10 weeks on a chow diet starting at the age of 18 months. RNA was isolated using Direct-zol RNA kit (Zymo, Irvine, Calif.). RNA quality was assessed using Agilent 2100 BioAnalyzer (Agilent, Santa Clara, Calif.). Samples with RIN≥8, 28S/18S≥1.0, and c≥20 ng/μL were included in analyses. […] Sequencing libraries were prepared by BGI genomics using the DNBsea™ technology. Paired end sequencing with 100 cycles was performed using the BGISEQ-500 instrument. After removal of adaptor sequences and low quality reads, at least 56 million reads per sample was obtained. SOAPnuke was used to obtain clean reads (parameters -l 15, -q 0.2, -n 0.05). Reads were mapped using STAR aligner version 2.5.2b using the mouse GRCm38 genome assembly and the release 91 GTF annotation from Ensembl. Htseq-count version 0.6.0 was used to count the number of reads mapping to genes (mode=union, type=exon, idattr=gene_id). Transcript displaying higher expression than log 2(CPM+1)>0.5 in at least 3 samples were included in analyses. Differential gene expression analysis and expression normalization was performed using voom, ‘variance modeling at the observational level’, adjusting for sacrifice date. At individual gene level, no gene passed the multiple testing correction threshold. Benjamini-Hochberg correction for multiple testing was used. For gene set enrichment analysis using gene ontology (GO) categories, transcripts were ordered according to their log 2-transformed fold change, and 100,000 permutations were used. Adjusted p-value<0.05 was considered significant."}, "mdx mice": {"test_system": "mdx mice", "test": "Transplantation of MuSCs from myriocin treated donors into cardiotoxin-injured mdx recipients", "text": "Decline in tissue regenerative potential is a major hallmark of mammalian aging, including skeletal muscle. It was next asked the question whether myriocin treatment induces functional improvement of MuSCs, boosting their regenerative capacity. MuSCs from aged mice treated or untreated with myriocin for 5 months were isolated, and transplanted into tibialis anterior (TA) muscles of recipient mice. The recipient mice were either aged (20-month-old) C57Bl/6JRj or aged (1-year-old) mdx mice, a mouse model of Duchenne muscular dystrophy lacking dystrophin protein (FIG. 4a). Before MuSC transplantation, injury was induced by cardiotoxin injection to TA of all recipient mice. […] At both 7 and 14 days after transplantation the inflammatory area was also smaller (FIG. 12a-b) in mdx recipients of MuSCs isolated from myriocin treated mice. […] Thus, transplantation of MuSCs derived from myriocin treated donors induce major morphological improvements following cardiotoxin-induced muscle injury.\nCardiotoxin-induced muscle damage and MuSC transplantation. […]\nHistology. […] Microscopy images of fluorescence from muscle fibers were analyzed using the ImageJ software. Centralized nuclei percent, minimal Feret diameter and cross-sectional area in TA muscles were determined using the ImageJ software quantification of laminin, dystrophin, and DAPI-stained muscle images from VS120-S6-W slides scanner (Olympus). […] The mean cross-sectional area of muscle fibers was calculated as the average cross-sectional area of 2,000 fibers per from sample. 7-8 mouse samples per condition were used for histological quantification of donor mice. The eMyHC quantification is expressed as proportion of eMyHC positive signal over total TA cross sectional area. Following MuSC injection in CTX injected recipient mice, inflammation representing the regenerative stage of muscle was quantified by ImageJ software as proportion of inflammatory area over total area of the TA muscle cross section. The PAX7-positive cells were quantified as the average number of cells per field of more than 30 randomly chosen fields from a mouse TA. […]"}, "aged C57Bl/6JRj mice": {"test_system": "aged C57Bl/6JRj mice", "test": "Novel object recognition in aged mice", "description": "Novel Object Recognition. The novel object recognition task is used to assess recognition memory of mice. It is based on the natural tendency of rodents to explore a novel object by comparison to a familiar one. A habituation phase is realized to familiarize animals to the arena context. 24 hours later, during the acquisition phase (learning phase), two identical objects are placed in the arena and presented to the mouse. During the retention phase (3 hours following the acquisition phase), one of the two familiar objects is replaced by a novel one. Measures of duration and number of exploration for each object are realized, during both acquisition and retention phases, and a Recognition Index is calculated."}}, "data": [{"smiles": "CCCCCCC(=O)CCCCCCC=CCC(O)C(O)C(N)(CO)C(=O)O", "note": "(stereo not drawn) [myriocin, 2-Amino-3,4-dihydroxy-2-(hydroxymethyl)-14-oxoicos-6-enoic acid]", "values": [{"measurement": "expression of Pax7 in quadriceps muscle", "setting": "[1]", "value": "upregulated"}, {"measurement": "most downregulated pathways (gene set enrichment analysis)", "setting": "[1]; quadriceps RNA-seq", "value": "lipid metabolism and inflammation"}, {"measurement": "upregulated pathways (gene set enrichment analysis)", "setting": "[1]; quadriceps RNA-seq", "value": "muscle contraction and differentiation"}, {"measurement": "Myog and Myf5 transcripts in skeletal muscle", "setting": "[1]; quadriceps", "value": "upregulated"}, {"measurement": "inflammatory area of TA", "setting": "mdx mice; 7 and 14 days after transplantation", "value": "smaller"}, {"measurement": "count of PAX7+ cells in TA", "setting": "mdx mice; 7 days after transplantation", "value": "elevated count"}, {"measurement": "myogenesis of dystrophin-positive fibers", "setting": "mdx mice; 7 days after transplantation", "value": "stimulated myogenesis"}, {"measurement": "recognition index", "setting": "aged C57Bl/6JRj mice; myriocin 5 months vs DMSO", "value": "higher"}, {"measurement": "time exploring novel object relative to familiar object", "setting": "aged C57Bl/6JRj mice; myriocin 5 months vs DMSO treated counterparts", "value": "more"}]}]}
